# Source: patent US20240092799A1, “MNK INHIBITORS” (Hepagene Therapeutics (HK) Limited, priority 2020, published 2024)
# Molecular target: MNK2 (Homo sapiens (Human), UniProt Q9HBH9)
# Assay: MNK Biochemical Enzymatic Assay (ADP-Glo), MNK2 binding assay
# Procedure: MNK Biochemical Enzymatic Assay. This protocol establishes the binding assays for MNK1 and MNK2 using ADP-Glo assay. MNK phosphorylates the substrate and converts ATP to ADP, which was detected by Envision and used to reflect the reminding activity of MNK. Reagents and equipment used in the assay are listed below, followed by the protocol.
# • a) Add 50 μL compound to 384-well dilution plate • b) Dilute compound 1:3 in succession in DMSO for each column for 10+0 pts (refer to dilution plate map) • c) Transfer 0.1 μL diluted compound solution in each row to 384 assay plate using Echo, each column containing 2 replicates (refer to assay plate map) • d) Add 5 μL enzyme working solution to 384-well assay plate, centrifuge 1000 RPM for 1 min • e) Incubate at 25° C. for 15 min • f) Add 5 μL substrate working solution to initiate reaction • g) Incubate at 25° C. for 60 min • h) Add 10 μL ADP Glo reagent, centrifuge 1000 RPM for 1 min • i) Incubate at 25° C. for 60 min • j) Add 20 μL kinase detection reagent, centrifuge 1000 RPM for 1 min • k) Incubate at 25° C. for 60 min • l) Read on Envision for US LUM as RLU • m) Data analysis: IC50s were determined based on a non-linear regression analysis of data collected.
# Chain of MNK2 (Q9HBH9 whole entry): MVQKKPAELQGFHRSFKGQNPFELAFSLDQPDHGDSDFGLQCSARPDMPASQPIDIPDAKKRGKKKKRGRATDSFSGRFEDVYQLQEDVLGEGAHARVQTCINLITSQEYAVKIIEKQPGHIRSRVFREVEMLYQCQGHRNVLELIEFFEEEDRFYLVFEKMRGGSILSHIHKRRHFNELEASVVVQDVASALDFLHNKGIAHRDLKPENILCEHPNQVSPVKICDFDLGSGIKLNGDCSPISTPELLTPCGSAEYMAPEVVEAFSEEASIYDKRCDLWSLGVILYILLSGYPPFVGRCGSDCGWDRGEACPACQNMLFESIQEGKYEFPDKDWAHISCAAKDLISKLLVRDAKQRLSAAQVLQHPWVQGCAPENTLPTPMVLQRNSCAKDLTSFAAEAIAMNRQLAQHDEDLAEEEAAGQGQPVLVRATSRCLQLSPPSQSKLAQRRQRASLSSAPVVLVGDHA
row,Compound,IC50 [nM]
1,"Cc1cc(-c2cc(-c3cc(N)ncn3)no2)cc2c1C(=O)NC21CCCCC1 [Compound VII, 6′-(3-(6-Aminopyrimidin-4-yl)isoxazol-5-yl)-4′-methylspiro[cyclohexane-1,1′-isoindolin]-3′-one]",> 1000
2,"O=C1NC2(CCCCC2)c2cc(Nc3ncnc4sccc34)sc21 [Compound X-B, 2′-(thieno[2,3-d]pyrimidin-4-ylamino)spiro[cyclohexane-1,4′-thieno[2,3-c]pyrrol]-6′(5′H)-one]",100 to 1000
3,"Nc1cc(Nc2cc3n(n2)C2(CCCCC2)NC3=O)ncn1 [Compound XI, 2′-((6-Aminopyrimidin-4-yl)amino)spiro[cyclohexane-1,6′-imidazo[1,5-b]pyrazol]-4′(5′H)-one]",> 1000
4,"CSc1ncc2c(-c3cc4c(s3)C(=O)NC43CCCCC3)n[nH]c2n1 [Compound XIX, 2′-(6-(Methylthio)-1H-pyrazolo[3,4-d]pyrimidin-3-yl)spiro[cyclohexane-1,4′-thieno[2,3-c]pyrrol]-6′(5′H)-one]",100 to 1000
5,"Cc1cc(-c2cc(-c3cc(N)ncn3)no2)c(=O)n2c1C(=O)NC21CCCCC1 [Compound XVIII, 6′-(3-(6-Aminopyrimidin-4-yl)isoxazol-5-yl)-8′-methyl-2′H-spiro[cyclohexane-1,3′-imidazo[1,5-a]pyridine]-1′,5′-dione]",> 1000
6,"O=C1NC2(CCCCC2)c2cc(Nc3ncnc(NC(=O)C4CC4)c3Cl)sc21 [Compound XX-7, N-(5-Chloro-6-((6′-oxo-5′,6′-dihydrospiro[cyclohexane-1,4′-thieno[2,3-c]pyrrol]-2′-yl)amino)pyrimidin-4-yl)cyclopropanecarboxamide]",100 to 1000
7,"COc1c(NC(=O)C2CC2)ncnc1Nc1cc2c(s1)C(=O)NC21CCCCC1 [Compound XX-B, N-(5-Methoxy-6-((6′-oxo-5′,6′-dihydrospiro[cyclohexane-1,4′-thieno[2,3-c]pyrrol]-2′-yl)amino)pyrimidin-4-yl)cyclopropanecarboxamide]",100 to 1000
8,"Cc1c(NC(=O)C2CC2)ncnc1Nc1cc2c(s1)C(=O)NC21CCCCC1 [Compound XX-C, N-(5-Methyl-6-((6′-oxo-5′,6′-dihydrospiro[cyclohexane-1,4′-thieno[2,3-c]pyrrol]-2′-yl)amino)pyrimidin-4-yl)cyclopropanecarboxamide]",100 to 1000
9,"Nc1cc(Nc2sc3c(c2Cl)C2(CCCCC2)NC3=O)ncn1 [Compound XXI, 2′-((6-Aminopyrimidin-4-yl)amino)-3′-chlorospiro[cyclohexane-1,4′-thieno[2,3-c]pyrrol]-6′(5′H)-one]",100 to 1000
10,"CN(C)CCNc1cc(Nc2cc3c(s2)C(=O)NC32CCCCC2)ncn1 [Compound XXIII-A, 2′-((6-((2-(Dimethylamino)ethyl)amino)pyrimidin-4-yl)amino)spiro [cyclohexane-1,4′-thieno[2,3-c]pyrrol]-6′(5′H)-one]",100 to 1000
11,"NC1CCN(c2cc(Nc3cc4c(s3)C(=O)NC43CCCCC3)ncn2)C1 (stereo not shown) [Compound XXIII-D, 2′-((6-(3-Aminopyrrolidin-1-yl)pyrimidin-4-yl)amino)spiro[cyclohexane-1,4′-thieno[2,3-c]pyrrol]-6′(5′H)-one]",> 1000
12,"O=C1NC2(CCCCC2)c2cc(Nc3cc(N4CCCCC4)ncn3)sc21 [Compound XXIII-E, 2′-((6-(Piperidin-1-yl)pyrimidin-4-yl)amino)spiro[cyclohexane-1,4′-thieno[2,3-c]pyrrol]-6′(5′H)-one]",> 1000
13,"O=C1NC2(CCCCC2)c2cc(Nc3cc(Cl)ncn3)sc21 [Compound XXIII-G, 2′-((6-Chloropyrimidin-4-yl)amino)spiro[cyclohexane-1,4′-thieno[2,3-c]pyrrol]-6′(5′H)-one]",10 to 100
14,"O=C1NC2(CCCCC2)c2cc(Nc3cc(N4CCCC4)ncn3)sc21 [Compound XXIII-H, 2′-((6-(Pyrrolidin-1-yl)pyrimidin-4-yl)amino)spiro[cyclohexane-1,4′-thieno[2,3-c]pyrrol]-6′(5′H)-one]",> 1000
15,"Cc1cc(Nc2cc3c(s2)C(=O)NC32CCCCC2)ncn1 [Compound XXIII-I, 2′-((6-Methylpyrimidin-4-yl)amino)spiro[cyclohexane-1,4′-thieno[2,3-c]pyrrol]-6′(5′H)-one]",100 to 1000
16,"O=C1NC2(CCCCC2)c2cc(Nc3cc(N4CCOCC4)ncn3)sc21 [Compound XXIII-K, 2′-((6-Morpholinopyrimidin-4-yl)amino)spiro[cyclohexane-1,4′-thieno[2,3-c]pyrrol]-6′(5′H)-one]",> 1000
17,"O=C1NC2(CCCCC2)c2cc(Nc3cc(N4CCC(F)(F)CC4)ncn3)sc21 [Compound XXIII-L, 2′-((6-(4,4-Difluoropiperidin-1-yl)pyrimidin-4-yl)amino)spiro[cyclohexane-1,4′-thieno[2,3-c]pyrrol]-6′(5′H)-one]",> 1000
18,"CN1CCN(c2cc(Nc3cc4c(s3)C(=O)NC43CCCCC3)ncn2)CC1 [Compound XXIII-M, 2′-((6-(4-Methylpiperazin-1-yl)pyrimidin-4-yl)amino)spiro[cyclohexane-1,4′-thieno[2,3-c]pyrrol]-6′(5′H)-one]",> 1000
19,"O=C1NC2(CCCCC2)c2cc(Nc3cc(Nc4ccncc4)ncn3)sc21 [Compound XXIII-O, 2′-((6-(pyridin-4-ylamino)pyrimidin-4-yl)amino)spiro[cyclohexane-1,4′-thieno[2,3-c]pyrrol]-6′(5′H)-one]",10 to 100
20,"O=C1NC2(CCCCC2)c2cc(Nc3cc(NCC4CCCO4)ncn3)sc21 (stereo not shown) [Compound XXIII-Q, 2′-((6-(((tetrahydrofuran-2-yl)methyl)amino)pyrimidin-4-yl)amino)spiro[cyclohexane-1,4′-thieno[2,3-c]pyrrol]-6′(5′H)-one]",10 to 100
21,"O=C1NC2(CCCCC2)c2cc(Nc3cc(NC4CCNC4)ncn3)sc21 (stereo not shown) [Compound XXIII-R, 2′-((6-(pyrrolidin-3-ylamino)pyrimidin-4-yl)amino)spiro[cyclohexane-1,4′-thieno[2,3-c]pyrrol]-6′(5′H)-one]",100 to 1000

# Now from value to molecule:
row,IC50 [nM],Compound
1,10 to 100,"Cc1cc(Nc2cc(N[C@H]3CC[C@@H](O)C3)ncn2)[n+]([O-])c2c1C(=O)NC21CCCCC1 (relative stereo) [Compound XXIX-Y, 2′-((6-((cis-3-hydroxycyclopentyl)amino)pyrimidin-4-yl)amino)-4′-methyl-5′-oxo-5′,6′-dihydrospiro[cyclohexane-1,7′-pyrrolo[3,4-b]pyridine] 1′-oxide]"
2,10 to 100,"Nc1cc(Nc2cc3c(s2)C(=O)NC32CCNCC2)ncn1 [Compound VIII-A, 2′-((6-aminopyrimidin-4-yl)amino)spiro[piperidine-4,4′-thieno[2,3-c]pyrrol]-6′(5′H)-one]"
3,10 to 100,"Nc1cc(Nc2cc3c(s2)C(=O)NC32CCCCC2)ncn1 [Compound X, 2′-((6-Aminopyrimidin-4-yl)amino)spiro[cyclohexane-1,4′-thieno[2,3-c]pyrrol]-6′(5′H)-one]"
4,10 to 100,"O=C1NC2(CCCCC2)c2cc(Nc3ccncn3)sc21 [Compound X-A, 2′-(pyrimidin-4-ylamino)spiro[cyclohexane-1,4′-thieno[2,3-c]pyrrol]-6′(5′H)-one]"
5,10 to 100,"Cc1c(N)ncnc1Nc1cc2c(s1)C(=O)NC21CCCCC1 [Compound X-D, 2′-((6-amino-5-methylpyrimidin-4-yl)amino)spiro[cyclohexane-1,4′-thieno[2,3-c]pyrrol]-6′(5′H)-one]"
6,10 to 100,"Nc1cc(Nc2cc3c(s2)C(=O)NC32CCCC2)ncn1 [Compound X-E, 2′-((6-aminopyrimidin-4-yl)amino)spiro[cyclopentane-1,4′-thieno[2,3-c]pyrrol]-6′(5′H)-one]"
7,10 to 100,"Nc1ncnc(Nc2cc3c(s2)C(=O)NC32CCCCC2)c1Cl [Compound XX, 2′-((6-Amino-5-chloropyrimidin-4-yl)amino)spiro[cyclohexane-1,4′-thieno[2,3-c]pyrrol]-6′(5′H)-one]"
8,10 to 100,"O=C1NC2(CCCCC2)c2cc(Nc3cc(NC(=O)C4CC4)ncn3)sc21 [Compound XX-A, N-(6-((6′-Oxo-5′,6′-dihydrospiro[cyclohexane-1,4′-thieno[2,3-c]pyrrol]-2′-yl)amino)pyrimidin-4-yl)cyclopropanecarboxamide]"
9,10 to 100,"O=C(Nc1cc(Nc2cc3c(s2)C(=O)NC32CCCCC2)ncn1)c1ccccc1 [Compound XX-E, N-(6-((6′-oxo-5′,6′-dihydrospiro[cyclohexane-1,4′-thieno[2,3-c]pyrrol]-2′-yl)amino)pyrimidin-4-yl)benzamide]"
10,10 to 100,"Nc1cc(Nc2cc3c(s2)C(=O)NC32CCOCC2)ncn1 [Compound XXII, 2′-((6-Aminopyrimidin-4-yl)amino)-2,3,5,6-tetrahydrospiro[pyran-4,4′-thieno[2,3-c]pyrrol]-6′(5′H)-one]"
11,10 to 100,"CNc1cc(Nc2cc3c(s2)C(=O)NC32CCCCC2)ncn1 [Compound XXIII, 2′-((6-(Methylamino)pyrimidin-4-yl)amino)spiro[cyclohexane-1,4′-thieno[2,3-c]pyrrol]-6′(5′H)-one]"
12,10 to 100,"O=C1NC2(CCCCC2)c2cc(Nc3cc(Nc4ccccc4)ncn3)sc21 [Compound XXIII-B, 2′-((6-(Phenylamino)pyrimidin-4-yl)amino)spiro[cyclohexane-1,4′-thieno[2,3-c]pyrrol]-6′(5′H)-one]"
13,10 to 100,"O=C1NC2(CCCCC2)c2cc(Nc3ncnc4sc5c(c34)CCCC5)sc21 [Compound XXIII-F, 2′-((5,6,7,8-Tetrahydrobenzo[4,5]thieno[2,3-d]pyrimidin-4-yl)amino)spiro [cyclohexane-1,4′-thieno[2,3-c]pyrrol]-6′(5′H)-one]"
